{"source": "patent US20190010547A1", "about": "(Medizinische Universität Innsbruck, priority 2015, published 2019)", "key": {"[1]": {"settings": "ASCOT participants, atorvastatin 10 mg/day vs placebo, baseline vs 1 year"}, "[2]": {"tested_on": "serum miR-122", "settings": "ASCOT participants (n=155), atorvastatin 10 mg/day vs placebo, baseline vs 1 year"}, "[3]": {"tested_on": "serum miR-122", "experiment": "Statin treatment of mice: serum miR-122", "settings": "C57BI/6 mice, 20 mg/kg atorvastatin intraperitoneally once a day for five days"}, "[4]": {"tested_on": "miR-122", "experiment": "AntagomiR treatment of mice: liver miR-122 by Northern blotting and quantitative PCR", "assay_type": "in vivo", "settings": "mouse liver", "method": "(§1) Liver and serum samples were harvested for analysis.\nMiRNA expression was assessed by Northern blot analysis as previously described (Suárez, Circ Res 2007, 100: 1164-73). Briefly, total RNA (5 μg) was separated on a 15% acrylamide TBE 8M urea gel and blotted onto a Hybond N+ nylon filter (Amersham Biosciences). […] ATP and […] polynucleotide kinase (New England Biolabs) to generate high-specific activity probes. Hybridization was carried out according to the ExpressHyb (Clontech) protocol. Following overnight membrane hybridization with specific radiolabeled probes, membranes were washed once for 30 min at 42° C. in 4×SSC/0:5% SDS and subjected to autoradiography. Blots were re-probed for 5S rRNA to control for equal loading: 5′-[…]-3′\nTotal RNA was isolated from liver and hepatocyte samples using TRIzol reagent (Invitrogen) according to the manufacturer's protocol. For mRNA quantification, cDNA was synthesized using iScript RT Supermix (Bio-Rad), following the manufacturer's protocol. qRT-PCR analysis was performed in triplicate using iQ SYBR green Supermix (BioRad) on an iCycler Real-Time Detection System (Eppendorf). […] For miRNA quantification, total RNA was reverse transcribed using the miScript II RT Kit (Qiagen). […] 1 μg of total RNA was reverse transcribed and gene/miRNA expression assessed as above."}, "[5]": {"experiment": "AntagomiR treatment of mice: serum cholesterol", "assay_type": "in vivo", "settings": "antagomiR-122 vs control antagomiRs, 65 mg/kg i.p. x3 days, day 7", "method": "as §1\nBlood samples were collected by retro-orbital venous plexus puncture after a 12 h overnight fast for lipid analysis. Plasma was separated by centrifugation and stored at 4° C. Total and HDL cholesterol in each sample was enzymatically measured using the T-Cholesterol and HDL-C Assay Kits (Wako Diagnostics)."}, "[6]": {"tested_on": "genes implicated in cholesterol and lipid metabolism (ACC1, CTP1, FAS, SCD1, MTTP, SREBP1)", "experiment": "AntagomiR treatment of mice: liver expression of genes implicated in cholesterol and lipid metabolism (qRT-PCR)", "assay_type": "in vivo", "settings": "mouse liver mRNA, antagomiR-122 65 mg/kg i.p. x3 days, day 7", "method": "as §1\n(§2) Total RNA was isolated from liver and hepatocyte samples using TRIzol reagent (Invitrogen) according to the manufacturer's protocol. For mRNA quantification, cDNA was synthesized using iScript RT Supermix (Bio-Rad), following the manufacturer's protocol. qRT-PCR analysis was performed in triplicate using iQ SYBR green Supermix (BioRad) on an iCycler Real-Time Detection System (Eppendorf). The mRNA level was normalized to GAPDH or 18S as a house keeping gene (see primer sequence in Table 2). For miRNA quantification, total RNA was reverse transcribed using the miScript II RT Kit (Qiagen). […] For mouse tissues, total liver RNA from WT mice fed a HFD were isolated using the Bullet Blender Homogenizer (Next Advance) in TRIzol. 1 μg of total RNA was reverse transcribed and gene/miRNA expression assessed as above."}, "[7]": {"tested_on": "miR-33", "experiment": "AntagomiR treatment of mice: hepatic miR-33 expression", "assay_type": "in vivo", "settings": "mouse liver, antagomiR-122 vs control antagomiRs, 65 mg/kg i.p. x3 days, day 7", "method": "as §1, §2"}, "[8]": {"tested_on": "hepatitis C virus", "settings": "36 patients with chronic hepatitis C genotype 1 infection, Phase 2a (Janssen, N Engl J Med 2013); cited from earlier work"}}, "note": "“Also recorded” adds a separate entry of the source."}
{"molecule": "CC(C)c1c(C(=O)Nc2ccccc2)c(-c2ccccc2)c(-c2ccc(F)cc2)n1CC[C@@H](O)C[C@@H](O)CC(=O)O", "note": "[atorvastatin]", "values": [{"measurement": "total cholesterol", "setting": "[1]", "value": "concordant reduction"}, {"measurement": "serum miR-122 levels", "setting": "[2]", "value": "reduced circulating miR-122 levels; also recorded: concordant reduction"}, {"measurement": "serum miR-122", "setting": "[3]", "value": "reduction of miR-122; also recorded: reduced serum miR-122"}]}
{"molecule": "C*A*AACACCAUUGUCACACU*C*C*A*Chol*-T [antagomiR-122]", "values": [{"measurement": "liver miR-122 expression", "setting": "[4]; Northern blotting / qPCR, 65 mg/kg i.p. on three consecutive days, day 7, n=5 per group, 65 mg/kg", "value": "almost complete inhibition of miR-122 expression; also recorded: reduction of liver miR-122"}, {"measurement": "relative amount of miR-122 in antagomiR-122 group", "setting": "[4]; quantitative PCR, 65 mg/kg intraperitoneally on three consecutive days, sacrificed at day 7, vs control antagomiRs, mean (standard deviation)", "value": 0.13, "unit": "%+/−0.06%"}, {"measurement": "serum cholesterol concentration", "setting": "[5]", "value": "lower cholesterol levels; also recorded: reduction in serum cholesterol concentration"}, {"measurement": "expression of genes implicated in lipid metabolism (de novo lipogenesis and lipoprotein assembly)", "setting": "[6]", "value": "down-regulation of enzymes implicated in lipid metabolism"}, {"measurement": "hepatic expression of miR-33", "setting": "[7]", "value": "attenuated; also recorded: reduction of miR-33"}]}
{"molecule": "miravirsen", "values": [{"measurement": "hepatitis C virus RNA levels", "setting": "[8]", "value": "reduced hepatitis C virus RNA levels in a dose-dependent manner"}]}
